Results on 37 molecules are retold here after the NIST ThermoML archive (doi:10.1016/j.fluid.2014.11.020).

± gives the expanded uncertainty stated by the source.

The nature of this data set: activity coefficient (dimensionless); of the first substance listed, at infinite dilution; xn = mol fraction of the nth substance listed. To be noted: Liquid, Chromatography, x1 = 0.

On to `ClCCl` [dichloromethane] + CCCCCCCCn1cc[n+](COCCC)c1C.N#C[N-]C#N, for which the activity coefficient (323.15 K) was determined as 0.34 ± 0.03, the activity coefficient (333.15 K) is 0.37 ± 0.03 and the activity coefficient (343.15 K) worked out at 0.37 ± 0.03.
Turning to `CC1CCCCC1` [methylcyclohexane] + CCCCCCCCn1cc[n+](COCCC)c1C.O=S(=O)([N-]S(=O)(=O)C(F)(F)F)C(F)(F)F, the activity coefficient came out at 3.09 ± 0.21 (323.15 K), 2.91 ± 0.2 (333.15 K) and 2.8 ± 0.19 (343.15 K).
In the case of `CC1CCCCC1` [methylcyclohexane] + CN(C)c1cc[n+](COCCCOC[n+]2ccc(N(C)C)cc2)cc1.O=S(=O)([N-]S(=O)(=O)C(F)(F)F)C(F)(F)F.O=S(=O)([N-]S(=O)(=O)C(F)(F)F)C(F)(F)F, the activity coefficient came to 13.9 ± 0.95 (323.15 K), 12.7 ± 0.87 (333.15 K) and 11.8 ± 0.8 (343.15 K).
For the molecule `c1ccsc1` [thiophene] + CCCOC[n+]1ccn(C)c1.N#C[N-]C#N, the activity coefficient (323.15 K) was found to be 1.41 ± 0.09, the activity coefficient (333.15 K) was found to be 1.45 ± 0.1 and the activity coefficient (343.15 K) turned out to be 1.5 ± 0.1.
`CCCO` [propan-1-ol] + CCCOC[n+]1ccn(C)c1.O=S(=O)([N-]S(=O)(=O)C(F)(F)F)C(F)(F)F: the activity coefficient by setting is: (323.15 K) 1.86 ± 0.13; (333.15 K) 1.66 ± 0.11; (343.15 K) 1.5 ± 0.1.
In the case of `Cc1ccc(C)cc1` [1,4-dimethylbenzene] + CCCOC[n+]1ccn(Cc2ccccc2)c1.F[B-](F)(F)F, the activity coefficient was determined as 5.12 ± 0.35 (323.15 K), 4.85 ± 0.33 (333.15 K) and 4.88 ± 0.33 (343.15 K).
With `ClC(Cl)(Cl)Cl` [tetrachloromethane] + CCCCCCCCn1cc[n+](COCCCOC[n+]2ccn(CCCCCCCC)c2C)c1C.O=S(=O)([N-]S(=O)(=O)C(F)(F)F)C(F)(F)F.O=S(=O)([N-]S(=O)(=O)C(F)(F)F)C(F)(F)F, the activity coefficient is, setting by setting: (323.15 K) 0.99 ± 0.06; (333.15 K) 0.92 ± 0.06; (343.15 K) 1.02 ± 0.06.
The like results for `C1COCCO1` [1,4-dioxane] + CCCOC[n+]1ccc(N(C)C)cc1.O=S(=O)([N-]S(=O)(=O)C(F)(F)F)C(F)(F)F were, in that order, 0.56 ± 0.04, 0.59 ± 0.04 and 0.59 ± 0.04.
For `CC(C)O` [propan-2-ol] + Cn1cc[n+](COCCCOC[n+]2ccn(C)c2)c1.O=S(=O)([N-]S(=O)(=O)C(F)(F)F)C(F)(F)F.O=S(=O)([N-]S(=O)(=O)C(F)(F)F)C(F)(F)F, in that order: 1.31 ± 0.09, 1.22 ± 0.08 and 1.05 ± 0.07.
For the molecule `ClCCl` [dichloromethane] + Cn1cc[n+](COCCCOC[n+]2ccn(C)c2)c1.O=S(=O)([N-]S(=O)(=O)C(F)(F)F)C(F)(F)F.O=S(=O)([N-]S(=O)(=O)C(F)(F)F)C(F)(F)F, the activity coefficient reads like this: (323.15 K) 0.55 ± 0.04; (333.15 K) 0.61 ± 0.04; (343.15 K) 0.43 ± 0.04.
For `CCCCCCCCCCCCC` [tridecane] + CCCOC[n+]1ccn(C)c1.O=S(=O)([N-]S(=O)(=O)C(F)(F)F)C(F)(F)F, in that order: 201 ± 14, 165 ± 11 and 147 ± 10.
As to `CCCCO` [butan-1-ol] + Cn1cc[n+](COCCCOC[n+]2ccn(C)c2)c1.N#C[N-]C#N.N#C[N-]C#N, the activity coefficient (323.15 K) is 2.21 ± 0.15, the activity coefficient (333.15 K) is 1.9 ± 0.13 and the activity coefficient (343.15 K) stood at 1.79 ± 0.12.
`CCCCCCCCCCCCC` [tridecane] + CCCOC[n+]1ccn(C)c1.F[B-](F)(F)F: the activity coefficient by setting is: (323.15 K) 1640 ± 110; (333.15 K) 1630 ± 110; (343.15 K) 1630 ± 110.
Turning to `c1ccccc1` [benzene] + CCCCCCCCn1cc[n+](COCCC)c1C.N#C[N-]C#N, the activity coefficient is 1.39 ± 0.09 (323.15 K), 1.23 ± 0.08 (333.15 K) and 1.07 ± 0.07 (343.15 K).
On to `ClCCl` [dichloromethane] + CCCOC[n+]1ccc(N(C)C)cc1.O=S(=O)([N-]S(=O)(=O)C(F)(F)F)C(F)(F)F, for which the activity coefficient was 0.57 ± 0.04 (323.15 K), 0.62 ± 0.04 (333.15 K) and 0.63 ± 0.04 (343.15 K).
For `CCO` [ethanol] + CCCOC[n+]1ccn(C)c1.F[B-](F)(F)F, the activity coefficient came out at 2.1 ± 0.14 (323.15 K), 1.9 ± 0.13 (333.15 K) and 1.75 ± 0.12 (343.15 K).
For `C1COCCO1` [1,4-dioxane] + CCCOC[n+]1ccn(C)c1.O=S(=O)([N-]S(=O)(=O)C(F)(F)F)C(F)(F)F, in that order: 0.57 ± 0.04, 0.57 ± 0.04 and 0.58 ± 0.04.
For `c1ccncc1` [pyridine] + Cn1cc[n+](COCCCOC[n+]2ccn(C)c2)c1.O=S(=O)([N-]S(=O)(=O)C(F)(F)F)C(F)(F)F.O=S(=O)([N-]S(=O)(=O)C(F)(F)F)C(F)(F)F, in that order: 0.4 ± 0.03, 0.41 ± 0.03 and 0.41 ± 0.03.
The like results for `c1ccccc1` [benzene] + CCCOC[n+]1ccn(C)c1.O=S(=O)([N-]S(=O)(=O)C(F)(F)F)C(F)(F)F were, in that order, 1.2 ± 0.08, 1.17 ± 0.07 and 1.17 ± 0.07.
Turning to `CCCCCCCCCCCCC` [tridecane] + CCCOC[n+]1ccc(N(C)C)cc1.O=S(=O)([N-]S(=O)(=O)C(F)(F)F)C(F)(F)F, the activity coefficient worked out at 102 ± 7 (323.15 K), 96.4 ± 6.6 (333.15 K) and 81.9 ± 5.6 (343.15 K).
For `CCCC(C)=O` [pentan-2-one] + CCCCCCCCn1cc[n+](COCCC)c1C.N#C[N-]C#N, in that order: 0.95 ± 0.06, 0.96 ± 0.06 and 0.98 ± 0.06.
For `ClC(Cl)Cl` [trichloromethane] + Cn1cc[n+](COCCCOC[n+]2ccn(C)c2)c1.O=S(=O)([N-]S(=O)(=O)C(F)(F)F)C(F)(F)F.O=S(=O)([N-]S(=O)(=O)C(F)(F)F)C(F)(F)F, the activity coefficient worked out at 0.87 ± 0.06 (323.15 K), 0.89 ± 0.06 (333.15 K) and 0.71 ± 0.05 (343.15 K).
With `CCN(CC)CC` [triethylamine] + CCCCCCCCn1cc[n+](COCCC)c1C.O=S(=O)([N-]S(=O)(=O)C(F)(F)F)C(F)(F)F, the activity coefficient (323.15 K) is 1.2 ± 0.08.
In the case of `Cc1ccccc1` [toluene] + CCCCCCCCn1cc[n+](COCCC)c1C.O=S(=O)([N-]S(=O)(=O)C(F)(F)F)C(F)(F)F, the activity coefficient is 0.76 ± 0.05 (323.15 K), 0.76 ± 0.05 (333.15 K) and 0.77 ± 0.05 (343.15 K).
Turning to `CCCCCCC` [heptane] + CCCCCCCCn1cc[n+](COCCCOC[n+]2ccn(CCCCCCCC)c2C)c1C.O=S(=O)([N-]S(=O)(=O)C(F)(F)F)C(F)(F)F.O=S(=O)([N-]S(=O)(=O)C(F)(F)F)C(F)(F)F, the activity coefficient worked out at 4.67 ± 0.32 (323.15 K), 4.51 ± 0.31 (333.15 K) and 4.49 ± 0.31 (343.15 K).
As to `CCc1ccccc1` [ethylbenzene] + N#C[N-]C#N.N#C[N-]C#N.c1ccc(Cn2cc[n+](COCCCOC[n+]3ccn(Cc4ccccc4)c3)c2)cc1, the activity coefficient came out at 8.33 ± 0.57 (323.15 K), 8.08 ± 0.55 (333.15 K) and 7.78 ± 0.53 (343.15 K).
`CCCCCCCCCCC` [undecane] + CCCOC[n+]1ccc(N(C)C)cc1.O=S(=O)([N-]S(=O)(=O)C(F)(F)F)C(F)(F)F: the activity coefficient was found to be 55.7 ± 3.8 (323.15 K), 52.9 ± 3.6 (333.15 K) and 46.6 ± 3.2 (343.15 K).
For `CC#N` [acetonitrile] + CCCCCCCCn1cc[n+](COCCCOC[n+]2ccn(CCCCCCCC)c2C)c1C.O=S(=O)([N-]S(=O)(=O)C(F)(F)F)C(F)(F)F.O=S(=O)([N-]S(=O)(=O)C(F)(F)F)C(F)(F)F, in that order: 0.26 ± 0.03, 0.25 ± 0.03 and 0.25 ± 0.03.
The like results for `ClC(Cl)Cl` [trichloromethane] + CCCOC[n+]1ccn(Cc2ccccc2)c1.F[B-](F)(F)F were, in that order, 1.16 ± 0.07, 1.15 ± 0.07 and 1.2 ± 0.08.
The like results for `CC1CCCC1` [methylcyclopentane] + CCCOC[n+]1ccn(Cc2ccccc2)c1.N#C[N-]C#N were, in that order, 15.7 ± 1.1, 15.2 ± 1 and 13.5 ± 0.92.
With `CCCCCCCC` [octane] + CCCOC[n+]1ccn(C)c1.N#C[N-]C#N, the activity coefficient was 155 ± 11 (323.15 K), 135 ± 9.2 (333.15 K) and 112 ± 7.7 (343.15 K).
Take `ClC(Cl)Cl` [trichloromethane] + Cn1cc[n+](COCCCOC[n+]2ccn(C)c2)c1.N#C[N-]C#N.N#C[N-]C#N: the activity coefficient by setting is: (323.15 K) 1.02 ± 0.06; (333.15 K) 1.08 ± 0.07; (343.15 K) 1.14 ± 0.07.
As to `Cc1ccccc1C` [1,2-dimethylbenzene] + CCCOC[n+]1ccn(C)c1.N#C[N-]C#N, the activity coefficient runs as follows: (323.15 K) 5.05 ± 0.34; (333.15 K) 5.13 ± 0.35; (343.15 K) 5.22 ± 0.36.
Regarding `CCC[N+](=O)[O-]` [1-nitropropane] + CCCOC[n+]1ccn(C)c1.O=S(=O)([N-]S(=O)(=O)C(F)(F)F)C(F)(F)F, the activity coefficient runs as follows: (323.15 K) 0.74 ± 0.05; (333.15 K) 0.72 ± 0.05; (343.15 K) 0.72 ± 0.05.
Regarding `CCCCCCCC` [octane] + CCCOC[n+]1ccn(Cc2ccccc2)c1.O=S(=O)([N-]S(=O)(=O)C(F)(F)F)C(F)(F)F, the activity coefficient (323.15 K) was 16.1 ± 1.1, the activity coefficient (333.15 K) came to 12.9 ± 0.88 and the activity coefficient (343.15 K) worked out at 12.5 ± 0.85.
On to `C[N+](=O)[O-]` [nitromethane] + Cn1cc[n+](COCCCOC[n+]2ccn(C)c2)c1.O=S(=O)([N-]S(=O)(=O)C(F)(F)F)C(F)(F)F.O=S(=O)([N-]S(=O)(=O)C(F)(F)F)C(F)(F)F, for which the activity coefficient (323.15 K) was 0.31 ± 0.03, the activity coefficient (333.15 K) was 0.31 ± 0.03 and the activity coefficient (343.15 K) is 0.29 ± 0.03.
Consider `CCC(C)=O` [butanone] + CN(C)c1cc[n+](COCCCOC[n+]2ccc(N(C)C)cc2)cc1.O=S(=O)([N-]S(=O)(=O)C(F)(F)F)C(F)(F)F.O=S(=O)([N-]S(=O)(=O)C(F)(F)F)C(F)(F)F, for which the activity coefficient is, setting by setting: (323.15 K) 0.44 ± 0.04; (333.15 K) 0.41 ± 0.03; (343.15 K) 0.38 ± 0.03.
